pIC50: −log10 of the molar value.
Key:
IKZF1 = target: T1, IKZF1 (Homo sapiens, UniProt Q13422+Q96SW2); assay: Degradation of IKZF1 in L363 cells by Western blot; format: cell-based; settings: compound 1000 nM, 16 hours
T1 construct: endogenous in cells; host or cells: L363 cells
Protocol: (§1) The 24-well cell culture plate was inoculated with 0.95 mL L363 cells (Nanjing Co-bioer) per well with a cell density of 6×10^5 cells/well. The cell plate was placed in a 5% carbon dioxide incubator and cultured at 37° C. for 8 hours, then 50 μL of compound solution was added. The final concentration of the compound was 1000 nM. After continuing to culture for 16 hours, the cells were collected into a 1.5 mL centrifuge tube and centrifuged at 3000 rpm and 4° C. for 5 minutes. Cell precipitation was washed twice with 1×DPBS, resuspended cells were lysed with 100 μL lysate (cell lysate was Western and IP cell lysate (Beyotime), supplemented with 1 mM mixture of phenylmethylsulfonyl fluoride and protease inhibitor (Beyotime)), left on ice for 30 minutes, then centrifuged at 14000 g at 4° C. for 10 minutes, and the supernatant was taken to detect IKZF1 and IKZF3 protein level by Western blot.
(§2) The total protein concentration in the supernatant of cell lysis was determined by BCA protein quantitative kit (Tiangen). According to the concentration of total protein detected by BCA, the supernatant was adjusted to […] with PBS and 5×SDS-PAGE protein loading buffer (Beyotime), bathed in water at 100° C. for 10 minutes, then placed in ice bath for 5 minutes, centrifuged at 14000 g and 4° C. for 5 minutes, and then collected as WB loading sample. Prefabricated glue (KeyGEN) was used for protein electrophoresis with a loading amount of 10 μL (total protein 2 μg). After Tris-MOPS-SDS electrophoresis solution (Adamas), 120V constant pressure electrophoresis was performed. After electrophoresis, the protein on the adhesive strip was transferred to PVDF membrane with a constant current of […] for 50 minutes. After the membrane was transferred, the membrane was incubated in 5% bovine serum albumin solution for 2 hours at room temperature. After blocking, PVDF membranes were incubated with IKZF1 primary antibody (CST) and IKZF3 primary antibody (Abcam) overnight at 4°, the membranes were washed with TBST buffer (2.4 g Tris, 8.8 g NaCl, 1.5 mL Tween 20, pH adjusted to 7.4, constant volume to 1 L) for 30 minutes, incubated with secondary antibody (Abcam) for 2 hours at room temperature, finally incubated with Clarity Western ECL Substrate (BIO-RAD) for 5 minutes for luminescence development, chemiluminescence imaging system (Clinx, chemiScope 6200 Touch) was used for development and protein mapping photography. The protein map was analyzed by Clinx chemiluminescence analysis software for grayscale values. Using the formula: grayscale correction value=(target protein grayscale value/corresponding internal reference grayscale value)×10^3, the grayscale correction value of each sample was calculated. The degradation rate was calculated by comparing with the grayscale correction value of the control group.

[1] = Pharmacokinetic study in mice; format: in vivo, SD mice; settings: for AUC(0-t) / bioavailability / Cmax: male, SD, mouse, plasma; for bioavailability: gavage 100 mg/kg vs intravenous 1 mg/kg
Protocol: The following experimental scheme was used to study the pharmacokinetic behavior of the compound of the present invention in mice and evaluate its pharmacokinetic characteristics.
Experimental scheme: 3 healthy SD mice, male, weighing […], were given 100 mg/kg compound by gavage with a volume of 10 mL/kg, prepared with […] (w/v). Before the test, they were fasted for 12 hours and freely drank water. Food was uniformly consumed 4 h after administration.
Three healthy SD mice, male, weighing […], were given 1 mg/kg compound intravenously with a volume of 5 mL/kg, prepared with 5% DMSO/15% solutol %80% PBS (w/v). Before the test, they were fasted for 12 hours and freely drank water. Food was uniformly consumed 4 h after administration.
0.1 mL of venous blood was taken through the submaxillary venous plexus of mice at 0.08 h, 0.25 h, 0.5 h, 1 h, 2 h, 4 h, 8 h, 24 h after gavage administration and 0.08 h, 0.25 h, 0.5 h, 1 h, 2 h, 4 h, 8 h, 24 h after intravenous administration, placed in a heparin test tube, centrifuged at 11000 rpm for 5 min, and plasma was separated, the concentration of compounds in plasma was determined by liquid chromatography-tandem mass spectrometry.

[2] = target: T2, IRAK4 kinase protein in THP-1 cells (Homo sapiens, UniProt Q9NWZ3); assay: Degradation of IRAK4 in THP-1 cells by Western Blot; format: cell-based; settings: 24 hours; for Dmax / DC50: IRAK4 degradation in THP-1 cells; for Dmax: read-out: WB Dmax; for WB D(%) (300 nM) / WB D(%) (1000 nM): degradation percentage of IRAK4 in THP-1 cells; for WB D(%) (300 nM): compound 300 nM; for WB D(%) (1000 nM): compound 1000 nM; for DC50: read-out: WB DC50
T2 construct: endogenous in cells; host or cells: THP-1 cells
T2 sequence (Q9NWZ3 1-460): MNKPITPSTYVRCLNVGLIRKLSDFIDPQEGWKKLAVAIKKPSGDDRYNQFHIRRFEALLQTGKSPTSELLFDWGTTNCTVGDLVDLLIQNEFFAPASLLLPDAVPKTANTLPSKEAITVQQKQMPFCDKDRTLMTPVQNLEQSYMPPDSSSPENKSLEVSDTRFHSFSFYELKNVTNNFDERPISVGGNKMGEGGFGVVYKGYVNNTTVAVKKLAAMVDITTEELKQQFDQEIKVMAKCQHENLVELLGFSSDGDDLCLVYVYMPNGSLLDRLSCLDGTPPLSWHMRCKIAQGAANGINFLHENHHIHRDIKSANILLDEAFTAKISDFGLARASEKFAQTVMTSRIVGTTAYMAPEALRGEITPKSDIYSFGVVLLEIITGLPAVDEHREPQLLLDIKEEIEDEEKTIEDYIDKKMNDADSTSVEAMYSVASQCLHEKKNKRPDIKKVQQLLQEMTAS
Protocol: Each well of the 24-well cell culture plate was inoculated with 0.95 mL THP-1 cells (stem cell bank of Chinese academy of sciences) with a cell density of 5×10^5 cells/well. The cell plate was placed in a 5% carbon dioxide incubator and cultured overnight at 37° C., then 50 μL compound in dimethyl sulfoxide was added. The final concentration of the compound was in the range of 1-3000 nM. After continuous cultivation for 24 hours, the cells were collected into a 1.5 mL centrifuge tube, centrifuged at 1000 rpm and 4° C. for 5 minutes. Cell precipitation was washed twice with 1×DPBS, resuspended cells were lysed with 200 μL lysate (cell lysate was Western and IP cell lysate (Beyotime), supplemented with 1 mM mixture of phenylmethylsulfonyl fluoride and protease inhibitor (Beyotime)), left on ice for 30 minutes, then centrifuged at 14000 g at 4° C. for 10 minutes, and the supernatant was taken to detect IRAK4 protein level by Western blot.
The total protein concentration in the supernatant of cell lysis was determined by BCA protein quantitative kit (Tiangen). According to the concentration of total protein detected by BCA, the supernatant was adjusted to […] with PBS and 5×SDS-PAGE protein loading buffer (Beyotime), bathed in water at 100° C. for 10 minutes, then placed in ice bath for 5 minutes, centrifuged at 14000 g and 4° C. for 5 minutes, and then collected as WB loading sample. Prefabricated glue (KeyGEN) was used for protein electrophoresis with a loading amount of 10 μL (total protein 2 μg). After Tris-MOPS-SDS electrophoresis solution (Adamas), 120V constant pressure electrophoresis was performed. After electrophoresis, the protein on the adhesive strip was transferred to PVDF membrane with a constant current of […] for 50 minutes. After the membrane was transferred, the membrane was added in 1×QuickBlock blocking buffer (Beyotime) and incubated for 30 minutes at room temperature. After blocking, PVDF membranes were incubated with IRAK4 primary antibody (Abcam) overnight at 4°, the membranes were washed with TBST buffer (2.4 g Tris, 8.8 g NaCl, 1.5 mL Tween 20, pH adjusted to 7.4, constant volume to 1 L) for 30 minutes, incubated with secondary antibody (Abcam) for 2 hours at room temperature, finally incubated with Clarity Western ECL Substrate (BIO-RAD) for 5 minutes for luminescence development, chemiluminescence imaging system (Clinx, chemiScope 6200 Touch) was used for development and protein mapping photography. The protein map was analyzed by Clinx chemiluminescence analysis software for grayscale values. Using the formula: grayscale correction value=(target protein grayscale value/corresponding internal reference grayscale value)×[…], the grayscale correction value of each sample was calculated. The degradation rate was calculated by comparing with the grayscale correction value of the control group. Furthermore, DC50 and Dmax values of the compound were obtained by the nonlinear curve fitting with the logarithmic concentration-inhibition rate by GraphPad Prism 7.

IKZF3 = target: T3, IKZF3 (Homo sapiens, UniProt Q96SW2+Q9UKT9); assay: Degradation of IKZF3 in L363 cells by Western blot; format: cell-based; settings: compound 1000 nM, 16 hours
T3 construct: endogenous in cells; host or cells: L363 cells
T3 sequence (Q9UKT9 whole entry): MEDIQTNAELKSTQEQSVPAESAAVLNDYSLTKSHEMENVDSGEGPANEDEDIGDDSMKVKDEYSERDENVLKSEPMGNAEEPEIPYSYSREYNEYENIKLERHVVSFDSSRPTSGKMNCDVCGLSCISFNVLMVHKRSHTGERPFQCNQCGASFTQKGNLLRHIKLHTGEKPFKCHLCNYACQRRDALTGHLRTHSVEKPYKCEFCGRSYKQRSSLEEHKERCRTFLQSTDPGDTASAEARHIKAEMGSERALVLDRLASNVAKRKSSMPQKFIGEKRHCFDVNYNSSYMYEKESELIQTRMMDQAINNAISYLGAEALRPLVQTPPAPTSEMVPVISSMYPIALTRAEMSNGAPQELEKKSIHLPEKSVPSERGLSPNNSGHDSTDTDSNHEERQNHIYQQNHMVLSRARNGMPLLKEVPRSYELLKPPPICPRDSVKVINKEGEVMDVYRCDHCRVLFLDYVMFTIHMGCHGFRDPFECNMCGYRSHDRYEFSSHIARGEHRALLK
T3 sequence (Q96SW2 whole entry): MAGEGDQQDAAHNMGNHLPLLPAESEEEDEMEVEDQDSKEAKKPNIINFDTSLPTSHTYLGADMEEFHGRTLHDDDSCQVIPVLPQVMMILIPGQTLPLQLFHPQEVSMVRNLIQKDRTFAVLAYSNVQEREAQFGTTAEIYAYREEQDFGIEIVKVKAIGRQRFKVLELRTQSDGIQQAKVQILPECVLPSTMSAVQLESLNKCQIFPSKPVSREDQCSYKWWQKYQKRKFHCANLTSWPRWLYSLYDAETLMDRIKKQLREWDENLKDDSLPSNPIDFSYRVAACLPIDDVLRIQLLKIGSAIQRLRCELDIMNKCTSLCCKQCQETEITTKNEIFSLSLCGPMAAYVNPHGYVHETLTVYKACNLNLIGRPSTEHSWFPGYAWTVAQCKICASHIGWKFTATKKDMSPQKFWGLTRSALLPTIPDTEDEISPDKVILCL
T3 sequence (Q16531 whole entry partner): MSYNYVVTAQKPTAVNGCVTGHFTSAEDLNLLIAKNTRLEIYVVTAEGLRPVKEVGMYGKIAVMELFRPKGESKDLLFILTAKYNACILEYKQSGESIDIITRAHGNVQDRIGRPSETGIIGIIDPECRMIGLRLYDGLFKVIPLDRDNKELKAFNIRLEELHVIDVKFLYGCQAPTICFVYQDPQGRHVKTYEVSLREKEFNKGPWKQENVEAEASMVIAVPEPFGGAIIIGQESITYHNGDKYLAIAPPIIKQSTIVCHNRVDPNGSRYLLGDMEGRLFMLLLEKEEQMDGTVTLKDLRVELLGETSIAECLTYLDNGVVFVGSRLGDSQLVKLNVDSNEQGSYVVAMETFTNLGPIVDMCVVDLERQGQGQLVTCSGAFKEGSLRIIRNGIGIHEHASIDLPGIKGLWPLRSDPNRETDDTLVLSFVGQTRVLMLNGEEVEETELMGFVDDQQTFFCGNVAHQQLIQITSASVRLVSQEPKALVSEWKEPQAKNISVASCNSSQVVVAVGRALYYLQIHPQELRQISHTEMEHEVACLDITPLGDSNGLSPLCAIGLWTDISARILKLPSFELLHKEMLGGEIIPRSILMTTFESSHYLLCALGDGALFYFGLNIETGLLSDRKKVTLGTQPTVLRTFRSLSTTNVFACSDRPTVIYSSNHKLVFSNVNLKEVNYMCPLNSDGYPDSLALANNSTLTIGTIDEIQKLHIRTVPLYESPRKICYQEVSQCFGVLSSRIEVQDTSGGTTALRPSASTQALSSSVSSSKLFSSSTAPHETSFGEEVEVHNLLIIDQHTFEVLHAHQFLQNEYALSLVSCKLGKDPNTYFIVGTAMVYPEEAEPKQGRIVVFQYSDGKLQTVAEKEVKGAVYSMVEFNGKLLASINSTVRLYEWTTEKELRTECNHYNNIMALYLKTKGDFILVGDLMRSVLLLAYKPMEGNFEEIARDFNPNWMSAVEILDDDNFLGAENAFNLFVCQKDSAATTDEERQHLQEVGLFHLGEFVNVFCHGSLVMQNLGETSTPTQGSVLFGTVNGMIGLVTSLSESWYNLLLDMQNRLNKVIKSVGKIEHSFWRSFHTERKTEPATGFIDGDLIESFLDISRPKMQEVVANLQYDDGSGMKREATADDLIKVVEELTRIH
Protocol: as §1, §2

IRAK4 kinase = target: T4, IRAK4 kinase (Homo sapiens, UniProt Q9NWZ3); assay: IRAK4 kinase activity test (KinEASE-STK HTRF kit); format: biochemical; settings: IRAK4 kinase inhibition, 7 μM ATP, 37° C. 120 min
T4 sequence (Q9NWZ3 1-460): T2 sequence (Q9NWZ3 1-460)
Protocol: KinEASE-STK Si serine/threonine kinase kit (Cisbio) was used to detect the inhibitory effect of the compound on IRAK4 kinase activity. The specific method was: the compound was dissolved in dimethyl sulfoxide, and then it was diluted with the buffer solution of the kit by equal gradient to make the final concentration range of the tested compound in the reaction system 10000 nM-0.038 nM, then 2.5 nM kinase, 1 μM biotinylated polypeptide substrate and 7 μM adenosine triphosphate (ATP) were added in sequence and incubated at 37° C. for 120 min. Subsequently, anti-phosphorylated serine/threonine antibody coupled with europium element compound and modified XL665 streptavidin were added to the reaction system to terminate the reaction. After incubating at room temperature for 1 h, the fluorescence intensity of each well at the emission wavelength of 620 nm and 665 nm and the excitation wavelength of 337 nm was determined in HTRF mode on the microplate reader EnVision (PerkinElmer), the ratio value was calculated using the formula Ratio=(665 nm/620 nm)×10^4. By comparing with the fluorescence intensity ratio of the control group, the inhibition rate of the compound at each concentration was calculated, and then the IC50 value of the compound was obtained by fitting the nonlinear curve with the logarithmic concentration-inhibition rate by GraphPad Prism 7.

[3] = po, gavage administration 100 mg/kg

T1 sequence (Q13422 whole entry): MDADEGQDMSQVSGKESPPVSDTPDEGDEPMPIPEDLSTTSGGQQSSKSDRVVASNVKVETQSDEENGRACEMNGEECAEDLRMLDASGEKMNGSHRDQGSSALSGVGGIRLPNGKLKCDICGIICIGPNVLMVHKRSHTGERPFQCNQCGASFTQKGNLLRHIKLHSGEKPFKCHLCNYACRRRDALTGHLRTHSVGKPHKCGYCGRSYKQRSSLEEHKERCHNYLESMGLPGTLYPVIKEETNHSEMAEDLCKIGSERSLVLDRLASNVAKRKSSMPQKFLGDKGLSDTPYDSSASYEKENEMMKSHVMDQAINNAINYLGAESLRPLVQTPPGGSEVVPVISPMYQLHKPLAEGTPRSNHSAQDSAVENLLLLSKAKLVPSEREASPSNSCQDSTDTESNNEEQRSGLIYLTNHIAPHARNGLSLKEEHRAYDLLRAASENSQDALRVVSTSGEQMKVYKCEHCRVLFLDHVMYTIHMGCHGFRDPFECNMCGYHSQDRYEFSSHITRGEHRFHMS
T1 sequence (Q96SW2 whole entry): as the sequence (Q96SW2 whole entry) above
T1 sequence (Q16531 whole entry partner): as the sequence (Q16531 whole entry partner) above

SMILES	IKZF1 degradation rate (%) (IKZF1)	CL_pred ([1]; intravenous injection 1 mg/kg) [mL/min/kg]	Vss_pred ([1]; intravenous injection 1 mg/kg) [L/kg]	AUC(0-t) ([1]; intravenous injection 1 mg/kg) [ng·h/mL]	bioavailability ([1]; po) [%]	AUC(0-t) [1, 3] [ng·h/mL]	Cmax [1, 3] [ng/mL]	Dmax [2] [%]	WB D(%) (300 nM) [2]	WB D(%) (1000 nM) [2]	IKZF3 degradation rate (%) (IKZF3)	pIC50 (IRAK4 kinase)	DC50 [2] [nM]
COc1cc2nn(C3CCN(CC4CCN(CCOc5ccc6c(c5)C(=O)N(C5CCC(=O)NC5=O)C6=O)CC4)CC3)cc2cc1NC(=O)c1cccc(C(F)(F)F)n1 (stereo not shown) [Control group 2, N-(2-(1-((1-(2-((2-(2,6-dioxopiperidin-3-yl)-1,3-dioxoisoindol-5-yl)oxy)ethyl)piperidin-4-yl)methyl)piperidin-4-yl)-6-methoxy-2H-indazol-5-yl)-6-(trifluoromethyl) pyridinecarboxamide, reference compound]	47.5 ± 9.7	91.7	109.4	122	14	1720	150	85.1	79.7	85.7	71.2 ± 5.7		
CN(CC1CCN(c2cccc3c2C(=O)N(C2CCC(=O)NC2=O)C3=O)CC1)C[C@H]1CC[C@H](n2cc3cc(NC(=O)c4cccc(C(F)(F)F)n4)c(C(C)(C)O)cc3n2)CC1 (stereo partly shown) [Control group 3, N-(2-((1r,4r)-4-((((1-(2-(2,6-dioxopiperidin-3-yl)-1,3-dioxoisoindolin-4-yl)piperidin-4-yl)methyl)(methyl)amino)methyl)cyclohexyl)-6-(2-hydroxyprop-2-yl)-2H-indazol-5-yl)-6-(trifluoromethyl) pyridinecarboxamide, reference compound]	97.2 ± 2.6										92.8 ± 5.0		
COc1cc2nn(C3CCN(CC4CCN(c5ccc6c(c5)C(=O)N(C5CCC(=O)NC5=O)C6=O)CC4)CC3)cc2cc1NC(=O)c1cccc(C(F)(F)F)n1 (stereo not shown) [Example 2, N-(2-(1-((1-(2-(2,6-dioxopiperidin-3-yl)-1,3-dioxoisoindolin-5-yl)piperidin-4-yl)methyl)piperidin-4-yl)-6-methoxy-2H-indazol-5-yl)-6-(trifluoromethyl) pyridinecarboxamide]		8.3	3.3	1920	22.3	22400	1230	90.5	90.5	86.5		7.03	15.7
CC(C)(O)c1cc2nn(C3CCN(CC4CCN(c5ccc6c(c5)C(=O)N(C5CCC(=O)NC5=O)C6=O)CC4)CC3)cc2cc1NC(=O)c1cccc(C(F)(F)F)n1 (stereo not shown) [Example 7, N-(2-(1-((1-(2-(2,6-dioxopiperidin-3-yl)-1,3-dioxoisoindolin-5-yl)piperidin-4-yl)methyl)piperidin-4-yl)-6-(2-hydroxyprop-2-yl)-2H-indazol-5-yl)-6-(trifluoromethyl) pyridinecarboxamide]		5	2.2	3110	13.4	41600	3260	80.2	82.9	79.6		7.32	10.6
Nc1cccc2c1C(=O)N(C1CCC(=O)NC1=O)C2=O (stereo not shown) [Pomalidomide, reference compound]	99.7 ± 0.2										98.6 ± 0.6		

Reference: patent publication US12624019B2, “Indazole derivative, and preparation method therefor and use thereof” (Leadingtac Pharmaceutical (Shaoxing) Co., Ltd., priority 2020, dated 2026)
